We go through ten compounds from patent US5151442A, “Chroman derivative active on the central nervous system, their method of preparation and pharmaceutical compositions in which they are present” (Sanofi, priority 1988, dated 1992).

For the test, the system named is Female mice (Iffa Credo). Description: forced swimming test according to Porsolt et al. (immobility times over 4 minutes, 2nd to 6th minute). The note with it: Mus musculus, ip, read-out: % inhibition (of the immobility times compared with control animals); for inhibition in vivo at 0.06 mg/kg: 0.06 mg/kg i.p.; for inhibition in vivo at 0.25 mg/kg: 0.25 mg/kg i.p.; for inhibition in vivo at 0.125 mg/kg: 0.125 mg/kg i.p. The class given is in vivo. Here is the method:
Thus the products according to the invention were subjected to the forced swimming test according to Porsolt et al. (Archives Internationales de Pharmacodynamie, 1977, 229, 327-336). Female mice (Iffa Credo) weighing 22-24 g are immersed for a period of 6 minutes in a beaker containing 800 ml of water at 24°±1° C. The immobility times are measured over 4 minutes from the 2nd to the 6th minute. The results are expressed as the percentage inhibition of the immobility times of the treated animals compared with the control animals.

Structures can show the parent of a compound that is named as a salt.

With `CC1(C)Oc2ccc(C#N)cc2[C@@H](Nc2ccc(Cl)cc2)[C@@H]1O` (relative stereo) [SR 44546, Trans-4-(4-chloroanilino)-6-cyano-2,2-dimethyl-3-hydroxychroman], the inhibition in vivo at 0.06 mg/kg turned out to be 16% and the inhibition in vivo at 0.25 mg/kg came out at 44%.

Turning to `COC(=O)c1ccccc1N[C@@H]1c2cc(C#N)ccc2OC(C)(C)[C@H]1O` (relative stereo) [SR 44588, Trans-6-cyano-2,2-dimethyl-3-hydroxy-4-(2-methoxycarbonylanilino)chroman], the inhibition in vivo at 0.06 mg/kg was found to be 20% and the inhibition in vivo at 0.125 mg/kg was 27%.

Regarding `CN(C)CCS[C@@H]1c2cc(C#N)ccc2OC(C)(C)[C@H]1O` (relative stereo) [SR 44652, Trans-6-cyano-2,2-dimethyl-4-(2-dimethylaminoethylthio)-3-hydroxychroman hydrochloride], the inhibition in vivo at 0.06 mg/kg was found to be 25% and the inhibition in vivo at 0.125 mg/kg was 27%.

Regarding `CC1(C)Oc2ccc(C#N)cc2[C@@H](NS(=O)(=O)c2ccccc2C(F)(F)F)[C@@H]1O` (relative stereo) [SR 44665, Trans-6-cyano-2,2-dimethyl-3-hydroxy-4-(2-trifluoromethylbenzene-1-sulfonamido)chroman], the inhibition in vivo at 0.06 mg/kg was 24%.

For `CN(C)S(=O)(=O)N[C@@H]1c2cc(C#N)ccc2OC(C)(C)[C@H]1O` (relative stereo) [SR 44666, Trans-6-cyano-2,2-dimethyl-4-(N,N-dimethylsulfamoylamino)-3-hydroxychroman], the inhibition in vivo at 0.06 mg/kg stood at 21%. Besides, the inhibition in vivo at 1 mg/kg (1 mg/kg i.p.) stood at 23%.

Regarding `CC1(C)Oc2ccc(C#N)cc2[C@@H](S(=O)(=O)C2CCCCC2)[C@@H]1O` (relative stereo) [SR 44708, Trans-6-cyano-4-cyclohexylsulfonyl-2,2-dimethyl-3-hydroxychroman], the inhibition in vivo at 0.06 mg/kg is 21% and the inhibition in vivo at 0.25 mg/kg amounted to 37%.

As to `CC1(C)Oc2ccc(C#N)cc2[C@@H](Nc2ccccc2)[C@@H]1O` (relative stereo) [SR 46142 A], the inhibition in vivo at 0.06 mg/kg is 40%.

Take `CC1(C)Oc2ccc(C#N)cc2[C@@H](Nc2ccc(F)cc2)[C@@H]1O` (relative stereo) [SR 46143]: the inhibition in vivo at 0.06 mg/kg came to 27%.

For the compound `CC1(C)Oc2ccc(C#N)cc2[C@@H](Nc2ccc(C(F)(F)F)cc2)[C@@H]1O` (relative stereo) [SR 46276], the inhibition in vivo at 0.06 mg/kg came to 40%.

`CC1(C)C=C(Sc2ccc(Cl)cc2)c2cc(C#N)ccc2O1` [SR 44554, 4-(4-Chlorophenylthio)-6-cyano-2,2-dimethyl-2H-chromene]: the inhibition in vivo at 0.06 mg/kg is 33%.
